Consider four compounds from US4647457A, “Penicillanic acid derivatives” (Hoffmann-La Roche Inc., priority 1983, dated 1987).

The pIC50 is the IC50 on a negative log10 scale, so that one unit is a factor of ten.

Experiment [1] addresses β-lactamase from Proteus vulgaris 1028. Briefly: β-lactamase inhibition, nitrocefin cleavage, isolated enzyme from P. vulgaris 1028. It is filed as biochemical. The settings on record: 15 min pre-incubation, nitrocefin substrate, 37° C., pH 7.0. The method, then:
(§1) Various β-lactamases can be isolated from penicillin-resistant or cephalosphorin-resistant strains of bacteria such as Klebsiella pneumoniae NCTC 418, Proteus vulgaris 1028 and E. coli RTEM. For this purpose, the corresponding strains are cultivated in Tryptic Soy Broth (Difco) and harvested by centrifugation in the late logarithmic growth phase (when required 50-100 mg/l of ampicillin are added to the medium towards the end of the log-phase in order to induce the β-lactamase). The thus-obtained bacteria mass is treated with 10 mM of phosphate buffer (pH 7.0); the cells are broken open with ultrasound (Biosonic III, Bronwill; 3-5 min. impulse) while cooling. The mixture is centrifuged (20,000 r/min.) for 20-30 minutes and there is obtained a clear crude extract which can be used as the enzyme source (β-lactamase source) and which can be frozen at -20° C. for several months without loss of activity.
(§2) The determination of the activity of the isolated β-lactamases can be carried out according to the method of O'Callaghan, C. H. et al. [Antimicr. Ag. Chemother. 1, 283-288 (1972)] with the chromogenic cephalosporin nitrocefin (Glaxo). The required experimental batch contains per ml of water: 50 mM of phosphate buffer (pH 7.0), 0.1 mM of nitrocefin and sufficient enzyme (β-lactamase) in order to attain a ΔA/min. of about 0.1. The cleavage of the substrate, which is associated with a colour change, is carried out at 37° C. and is followed quantitatively at 482 nm with a spectral photometer.
(§3) The above-described cleavage of the chromogenic substrate by β-lactamases (experiment B) can be inhibited by adding compounds of formula I (inhibitors). Since it has been shown that the inhibitors irreversibly inactivate the β-lactamase in a time-dependent reaction, the reaction (cleavage of the substrate) is started by adding the substrate, in each case after a pre-incubation period of β-lactamase with inhibitor of 15 minutes. The determination of the β-lactamase-inhibiting activity of compounds of formula I in which R^1 signifies a group readily cleavable by hydrolysis is carried out in each case in the presence or absence of an esterase. As a measurement for the affinity of the respective tested inhibitor to the β-lactamase, which represents a measurement of the strength of the inhibitor, there serves that concentration which inhibits to 50% (IC 50 in μM/l) the cleavage of the substrate (nitrocefin) carried out under the above experimental conditions (experiment B) in the absence of an inhibitor. 4 to 6 experiments with differing concentrations of inhibitor were carried out in order to determine the IC 50. The determination of the IC 50 was carried out graphically.

Experiment [2] deals with T1, β-lactamase from E. coli RTEM (Escherichia coli, UniProt P62593).
T1 construct: there is obtained a clear crude extract which can be used as the enzyme source; endogenous in cells; host or cells: E. coli RTEM, sonicated cells, clear crude extract
Briefly: β-lactamase inhibition, nitrocefin cleavage, isolated enzyme from E. coli RTEM. The settings on record: 15 min pre-incubation, nitrocefin substrate, 37° C., pH 7.0. It is filed as biochemical. The method, then: as §1, §2, §3

The mark [3] stands for this setting: in the absence of an esterase, read-out: β-Lactamase inhibition IC50, P. vulgaris 1028, -E.
Setting [4] is: in the presence of an esterase, read-out: β-Lactamase inhibition IC50, P. vulgaris 1028, +E.

pIC50: −log10 of the molar value. Read-outs that look alike come from different tables or passages of the source.

T1 sequence (P62593 24-286 limits assumed): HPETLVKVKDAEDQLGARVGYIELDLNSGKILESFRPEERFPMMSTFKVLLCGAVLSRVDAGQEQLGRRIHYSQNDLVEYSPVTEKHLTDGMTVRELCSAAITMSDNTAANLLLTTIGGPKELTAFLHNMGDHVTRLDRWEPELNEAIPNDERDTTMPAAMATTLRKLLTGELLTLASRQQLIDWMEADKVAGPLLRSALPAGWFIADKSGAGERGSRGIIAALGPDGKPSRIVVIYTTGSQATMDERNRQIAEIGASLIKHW

Take `CC(=O)C[C@@]1(SC(C)=O)C(=O)N2[C@@H](C(=O)OCOC(=O)C(C)(C)C)C(C)(C)S[C@@H]21` [Example 5, methylene-(2S,5R,6R)-6-acetonyl-6-acetylthio-penicillanate pivalate]: the pIC50 is 5.38 in experiment [1] (setting [3]), 6.70 in experiment [1] (setting [4]), 6.15 in experiment [2] (in the absence of an esterase) and 8.00 in experiment [2] (in the presence of an esterase).

For the compound `CC(=O)C[C@]1(N2CCOCC2)C(=O)N2[C@@H](C(=O)OCOC(=O)C(C)(C)C)C(C)(C)S[C@@H]21` [Example 3, methylene-(2S,5R,6S)-6-acetonyl-6-morpholino-penicillanate pivalate], the pIC50 in experiment [1] (setting [3]) was 5.39; in experiment [1] (setting [4]), 7.00; in experiment [2] (in the absence of an esterase), 6.05; in experiment [2] (in the presence of an esterase) it was 8.00.

With `CC(=O)C[C@]1(Sc2ccccc2)C(=O)N2[C@@H](C(=O)OCOC(=O)C(C)(C)C)C(C)(C)S[C@@H]21` [Example 4, methylene-(2S,5R,6S)-6-acetonyl-6-phenylthio-penicillanate pivalate], the negative logarithm of the IC50 (pIC50) in experiment [1] (setting [3]) was 5.43; in experiment [1] (setting [4]), 6.52; in experiment [2] (in the absence of an esterase), 6.10; in experiment [2] (in the presence of an esterase), 8.70.

With `CC(C=C1C(=O)N2[C@@H]1SC(C)(C)[C@@H]2C(=O)OCOC(=O)C(C)(C)C)=NO` [Example 1, methylene-(2S,5R)-6-[2-(hydroxyimino)propylidene]pencillanate pivalate], the negative-log IC50 (pIC50) is 6.34 in experiment [1] (setting [3]), 7.46 in experiment [1] (setting [4]), 7.22 in experiment [2] (in the absence of an esterase) and 8.70 in experiment [2] (in the presence of an esterase).
